Test results reported in patent US4963563A, “6-substituted-1,2,3,4-tetrahydroisoquinolines” (Abbott Laboratories, priority 1989, dated 1990).
Structures can show the parent of a compound that is named as a salt.

Columns and labels:
alpha-2-receptor = experiment: Radioligand binding, alpha-2 adrenoceptor ([3H]-rauwolscine, rat cerebral cortices)
alpha-1-receptor = target: T1, alpha-1-receptor (Rattus norvegicus, UniProt P15823); experiment: Radioligand binding, alpha-1 adrenoceptor ([3H]-pyrazosin, rat liver homogenates)
T1 sequence (P15823 1-515): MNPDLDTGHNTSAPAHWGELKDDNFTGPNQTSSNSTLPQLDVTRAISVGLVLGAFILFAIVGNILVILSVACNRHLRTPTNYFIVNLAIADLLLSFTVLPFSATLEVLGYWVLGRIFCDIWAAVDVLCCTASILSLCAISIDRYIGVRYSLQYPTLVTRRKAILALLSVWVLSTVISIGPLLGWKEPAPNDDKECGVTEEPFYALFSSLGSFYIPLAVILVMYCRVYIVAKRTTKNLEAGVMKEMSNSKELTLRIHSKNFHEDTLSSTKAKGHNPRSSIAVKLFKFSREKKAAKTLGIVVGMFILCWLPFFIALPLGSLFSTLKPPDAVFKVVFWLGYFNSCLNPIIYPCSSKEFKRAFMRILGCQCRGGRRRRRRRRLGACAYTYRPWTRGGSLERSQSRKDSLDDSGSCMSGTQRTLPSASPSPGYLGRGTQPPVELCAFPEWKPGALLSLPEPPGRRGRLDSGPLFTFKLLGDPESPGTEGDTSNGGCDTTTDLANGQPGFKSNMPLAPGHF

[1] = test system: normal eyes of rabbits (intraocular pressure); experiment: Antiglaucoma activity: intraocular pressure after instillation into normal eyes of rabbits; type: in vivo, male, albino New Zealand rabbits
Description: In order to evaluate antiglaucoma activity, the test compounds were dissolved in the vehicle, a 0.2% aqueous solution of hydroxymethylcellulose at various concentrations such as 0.03%, 0.1%, or 0.3%. Comparisons were made to the reference standard, pilocarpine hydrochloride which was dissolved in the vehicle at a concentration of 0.5%. Control treatment was a volume dose of vehicle.
Male, albino New Zealand rabbits (Scientific Animal Farms and/or Kuiper's Rabbit Ranch) weighing 2.06-2.5 kg were used in the study. Intraocular pressures were obtained in the normal eyes of the animals using a Bausch and Lomb Applamatic Tonometer. Three separate sessions provided the baseline pressures for each eye. The test compound or vehicle (0.1 mL) was instilled into the eyes of 6 different rabbits according to a randomized dosing schedule. Intraocular pressures were taken at 5, 15, 30, 45, 60, 90 and 120 minutes after instillation of the test compounds.
Statistical treatment was by one-way analysis of variance. Results are shown (Table 1) for a representative sample of the compounds claimed.

[2] = 5 minutes after administration, 0.3% solution, 0.1 mL instilled
[3] = 15 minutes after administration, 0.3% solution, 0.1 mL instilled
[4] = 90 minutes after administration, 0.3% solution, 0.1 mL instilled
[5] = 120 minutes after administration, 0.3% solution, 0.1 mL instilled

Row | SMILES | Ki (alpha-2-receptor) | Ki (alpha-1-receptor) | Percent Change in IOP vs Baseline [1, 2] | Percent Change in IOP vs Baseline [1, 3] | Percent Change in IOP vs Baseline [1, 4] | Percent Change in IOP vs Baseline [1, 5] | also measured
1 | COc1ccc2c(c1)CCN(CCCc1cccc(F)c1)C2 [Example 5, 1,2,3,4-Tetrahydro-6-methoxy-N-3-(m-fluorophenyl)propyl isoquinoline hydrochloride] | 4.6 nM | 206 nM | – | – | – | – | –
2 | CC[C@@H]1C(=O)OC[C@@H]1Cc1cncn1C [Pilocarpine, pilocarpine hydrochloride, reference compound] | – | – | – | – | – | – | Percent Change in IOP vs Baseline ([1]; 15 minutes after administration, 0.5% solution (reference standard)): -22%; Percent Change in IOP vs Baseline ([1]; 90 minutes after administration, 0.5% solution (reference standard)): -20%; Percent Change in IOP vs Baseline ([1]; 120 minutes after administration, 0.5% solution (reference standard)): -33%
3 | Cc1ccc2c(c1)CCN(CCCc1ccccc1)C2 [Example 13, 1,2,3,4-Tetrahydro-6-methyl-N-(3-(phenylpropylisoquinoline Hydrochloride] | 5.6 nM | 114 nM | – | – | – | – | –
4 | COc1cccc(CCCN2CCc3cc(OC)ccc3C2)c1 [Example 8, 1,2,3,4-Tetrahydro-6-methoxy-N-3-(3-methoxyphenyl)propyl isoquinoline hydrochloride] | 10.7 nM | 174 nM | – | – | – | – | –
5 | COc1ccc2c(c1)CCN(CCCc1ccccc1)C2 [Example 7, 1,2,3,4-Tetrahydro-6-methoxy-N-(3-phenylpropyl)isoquinoline hydrochloride] | 5.9 nM | 217 nM | – | – | – | – | –
6 | COc1ccc2c(c1)CCN(CCCc1cccs1)C2.Cl [Example 2, 1,2,3,4-Tetrahydro-6-methoxy-N-3-(2-thienyl)propylisoquinoline hydrochloride] | 4.3 nM | 150 nM | -50% | -41% | -13% | +8% | –
7 | COc1ccc2c(c1)CCN(CCCc1ccco1)C2 [Example 6, 1,2,3,4-Tetrahydro-6-methoxy-N-3-(2-furyl)propylisoquinoline hydrochloride] | 2.2 nM | 154 nM | – | – | – | – | –
8 | CN(C)C(=O)Oc1ccc2c(c1)CCN(CCCc1cccs1)C2.CS(=O)(=O)O [Example 18, 1,2,3,4-Tetrahydro-6-((dimethylamino)carbonyl)oxy-2-N-(3-(2-thienyl)propyl)isoquinoline methane sulfonate] | – | – | -38% | -26% | -48% | -12% | –
9 | CC(C)(C)C(=O)Oc1ccc2c(c1)CCN(CCCc1cccs1)C2.CS(=O)(=O)O [Example 16, 1,2,3,4-Tetrahydro-6-trimethylacetoxy-N-3-(2-thienyl)propylisoquinoline methane sulfonate] | – | – | -11% | -12% | -36% | -4% | –
